# Test results taken from US5616615A, “Enaminone esters” (priority 1995, dated 1997).
# Where two headings read alike, the source gives them in different places.
# Tests used:
# [1] = tested on: Maximal electroshock seizures; test: MES maximal electroshock seizure test, mice ip; format: in vivo; set-up: TPE (time of peak effect), activity: unit not given here; conditions: ip; for responders at 100 mg/kg: read-out: MES, animals protected/tested (converted); for responders at 300 mg/kg: read-out: MES, animals protected/tested
# Experimental: Three tests were performed:
# 1. MES--Electroshock Seizure Test
# (§1) Maximal electroshock seizures are elicited with a 60-cycle alternating current of 50 mA intensity (5-7 times that necessary to elicit minimal electroshock seizures) delivered via corneal electrodes for 0.2 seconds. A drop of 0.9% saline is instilled in the eye prior to application of the electrodes in order to […].
# [2] = tested on: Subcutaneous Pentylenetetrazol seizure; test: sc Met subcutaneous pentylenetetrazol (Metrazol) seizure test, mice; format: in vivo; conditions: Mus musculus, sc, read-out: scMet, animals protected/tested (converted)
# in vivo [3] = conditions: mouse, in vivo, ip
# [4] = tested on: Maximal electroshock seizures; test: Phase VI oral MES test, rats; format: in vivo; conditions: oral; for responders at 6 mg/kg / responders at 10 mg/kg: Rattus norvegicus, read-out: MES, animals protected/tested (converted)
# Text: as §1
# (§2) This oral screen is designated as phase VI.
# in vivo [5] = conditions: rat, po
# Text: as §2
# Corneal Kindled rats = test: Corneal kindling; format: in vivo; conditions: for Ave. seizure score: ranking 0-5; for ED50: Rattus norvegicus
# Experimental: Corneal kindling studies were performed in our laboratories on 12 and 27 and the results are shown in Tables XI and XII and FIGS. 1A and 1B. Comparative data for the commercial products are included. Seizures evoked in electroshock-kindled rats provide a suitable model consistent with complex partial seizures evolving into generalized motor seizures in humans.
# ^a Rats kindled to Stage 5. Endpoint was reduction from Stage 5 to […]
# [6] = tested on: Amygdala Kindled Seizures; test: Suppression of amygdala kindled seizures; format: in vivo
# Experimental: Compounds 12 and 27 were evaluated in our laboratory for suppression of amygdala kindled seizures.
# bicuculline = test: Phase V quantification against bicuculline; format: in vivo; conditions: dose not given
# Experimental: (§3) Both 12 and 27 were evaluated in Phase V of the ADD Program evaluation scheme. Phase V provides quantification against bicuculline, picrotoxin, pentylenetetrazol, and strychnine. This screen provides information on the mechanism of action of the anticonvulsant activity. Bicuculline, picrotoxin, and strychnine correspond to GABA inhibitory function, chloride channel inhibition and inhibition by glycine respectively.
# picrotoxin = test: Phase V quantification against picrotoxin; format: in vivo; conditions: dose not given
# Experimental: as §3
# pentylenetetrazol = test: Phase V quantification against pentylenetetrazol; format: in vivo; conditions: dose not given
# Experimental: as §3
# strychnine = test: Phase V quantification against strychnine; format: in vivo; conditions: dose not given
# Experimental: as §3
# [7] = tested on: bicuculline, picrotoxin, pentylenetetrazol, and strychnine; conditions: in vivo
# Experimental: as §3
# benzodiazepine receptor = benzodiazepine receptor binding evaluation
# GABA receptor = GABA receptor binding test
# adenosine uptake = adenosine uptake assay
# seizures = test: Anticonvulsant evaluation (ASP phase I / overall); format: in vivo, mice
# In short: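 Male Carworth Farms #1 mice; maximal electroshock seizures elicited by 60-cycle AC, 50 mA, 0.2 s via corneal electrodes after a drop of 0.9% saline in the eye. Animals observed for 30 minutes.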
# Kinetic hydrolysis = format: physicochemical; conditions: for average absorbance value: over incubation periods
# Experimental: This solution was 4.0×10^-5 M. Phosphate buffer, pH 7.4 and water were used in this study. All experiments were performed in triplicate. A volume of the stock ethanol solution of 1 (0.2 mL), was diluted with the appropriate solvent to make 1 mL of solution. Each mixture was sealed in a Teflon capped reaction vial and incubated at 37° C. for the same time periods as indicated in the ip rat toxicity study (Tables X and X-A). After each time period, the vials were removed from the incubator and quenched at -80° C. until ready for analysis. Initial scan (t=O h) indicated a λ max at 311 nm for 27. […] After all samples were incubated, the UV spectra was taken from 190-500 nm using the respective solvent as a blank. The results were plotted in terms of absorbance v, time of incubation and the absorbance values.
# Neurotoxicity, rats ip = conditions: 100 mg/kg
# Experimental: The rotorod test is used to elevate neurotoxicity. The animal is placed on a 1 inch diameter knurled plastic rod rotating at 6 rpm. […] Neurologic toxicity is defined as the failure of the animal to remain on the rod for 1 minute and the results are expressed as the number of animals protected/the number of animals tested.
# The toxicity evaluation for the commercial agents as previously indicated was based on the onset of ataxia.
compound,measurement,setting,value
COC(=O)C1C(=O)C=C(Nc2ccc(Cl)cc2)CC1C (centres unmarked) [Compound 27],responders at 100 mg/kg,"[1]; Mus musculus, 0.5 h, 30 min",100%
same,responders at 300 mg/kg,"[1]; Mus musculus, 0.5 h, 30 min",100%
same,responders at 100 mg/kg,"[1]; Mus musculus, 4 h, 4 h",0%
same,responders at 300 mg/kg,"[1]; Mus musculus, 4 h, 4 h",100%
same,ED50,"[1]; Mus musculus, Phase II, time of peak effect",26.2 mg/kg
same,"TPE (time of peak effect), activity",[1]; Phase II,0.5
same,responders at 100 mg/kg,"[2]; 0.5 h, 30 min",0%
same,responders at 300 mg/kg,"[2]; 0.5 h, 30 min",0%
same,responders at 100 mg/kg,"[2]; 4 h, 4 h",0%
same,responders at 300 mg/kg,"[2]; 4 h, 4 h",0%
same,TD50,in vivo [3],255 mg/kg
same,"TPE (time of peak effect), toxicity",in vivo [3],2
same,selectivity ratio,in vivo [3],9.72
same,ED50,"[4]; Phase VI, rat",5.79 mg/kg
same,responders at 6 mg/kg,"[4]; 0.5 h, 0.50 h",75%
same,responders at 10 mg/kg,"[4]; 0.5 h, 0.50 h",100%
same,responders at 6 mg/kg,[4]; 1.00 h,50%
same,responders at 6 mg/kg,[4]; 2.00 h,25%
same,responders at 10 mg/kg,[4]; 0.25 h,75%
same,responders at 10 mg/kg,[4]; 1.00 h,100%
same,responders at 10 mg/kg,[4]; 2.00 h,100%
same,responders at 10 mg/kg,[4]; 4.00 h,75%
same,TD50,in vivo [5],> 380 mg/kg
same,selectivity ratio,in vivo [5],65.6
same,"Tox, animals toxic/tested",in vivo [5]; 6 mg/kg,0/4
same,"Tox, animals toxic/tested",in vivo [5]; 10 mg/kg,0/4
same,% Reduction,Corneal Kindled rats; 20 mg/kg,40%
same,Ave. seizure score,Corneal Kindled rats; 20 mg/kg,3.0
same,% Reduction,Corneal Kindled rats; 30 mg/kg,40%
same,Ave. seizure score,Corneal Kindled rats; 30 mg/kg,3.0
same,% Reduction,Corneal Kindled rats; 40 mg/kg,49%
same,Ave. seizure score,Corneal Kindled rats; 40 mg/kg,2.6
same,% Reduction,Corneal Kindled rats; 50 mg/kg,87%
same,Ave. seizure score,Corneal Kindled rats; 50 mg/kg,1.7
same,ED50,"Corneal Kindled rats; po, 0.5 h, read-out: ED50 (reduction from Stage 5 to Stage 4)",31.2 mg/kg
same,ED50,"Corneal Kindled rats; read-out: ED50, corneal kindling",31.2 mg/kg
same,Afterdischarge Amygdala: Duration,[6]; 350 mg/kg,79.8 s
same,Afterdischarge Cortex: Duration,[6]; 350 mg/kg,79.6 s
same,Afterdischarge Cortex: Latency,[6]; 350 mg/kg,2.7 s
same,Behavioral Seizure: Duration,[6]; 350 mg/kg,82.3 s
same,Behavioral Seizure: Latency,[6]; 350 mg/kg,2.1 s
same,Forelimb Clonus: Duration,[6]; 350 mg/kg,45.3 s
same,Forelimb Clonus: Latency,[6]; 350 mg/kg,9.2 s
same,Seizure Stage,[6]; 350 mg/kg,5.0
same,suppression of amygdala kindled seizures,[6]; in vivo,no significant activity
same,protection against bicuculline,bicuculline,uniformly inactive
same,protection against picrotoxin,picrotoxin,uniformly inactive
same,protection against pentylenetetrazol,pentylenetetrazol,uniformly inactive
same,protection against strychnine,strychnine,uniformly inactive
same,threshold to chemostimulants,[7],did not lower the threshold to these chemostimulants
same,benzodiazepine receptor binding,benzodiazepine receptor,inactive
same,GABA receptor binding,GABA receptor,inactive
same,adenosine uptake,adenosine uptake,inactive
same,activity compared with benzylamine counterpart,"seizures; 27 vs 16, 28 vs 17, 29 vs 20",activity is enhanced in all cases
same,minimal effective dose,"seizures; Mus musculus, ip, Phase I, read-out: ASP Classification",< 100 mg/kg
same,anticonvulsant activity,"seizures; mouse, in vivo",anticonvulsant activity was observed
same,average absorbance value,"Kinetic hydrolysis; aqueous media, 37° C.",0.929 (range 0.789-1.069)
same,average absorbance value,"Kinetic hydrolysis; pH 7.4 buffer, 37° C.",1.112 (range 0.983-1.240)
same,change of wavelength (λ max) on incubation,"Kinetic hydrolysis; water and pH 7.4 buffer, 37° C.",the wavelength did not change from 311 nm
same,significance of absorbance differences,Kinetic hydrolysis; water vs pH 7.4 buffer,not significant
same,animals displaying neurotoxicity/tested,"Neurotoxicity, rats ip; 0.25 h (Table X-A)",0/8
same,animals displaying neurotoxicity/tested,"Neurotoxicity, rats ip; 0.50 h (Table X-A)",3/8
same,animals displaying neurotoxicity/tested,"Neurotoxicity, rats ip; 1.00 h (Table X-A)",6/8
same,animals displaying neurotoxicity/tested,"Neurotoxicity, rats ip; 2.00 h (Table X-A)",7/8
same,animals displaying neurotoxicity/tested,"Neurotoxicity, rats ip; 4.00 h (Table X-A)",2/8
same,animals displaying neurotoxicity/tested,"Neurotoxicity, rats ip; 6.00 h (Table X-A)",1/8
same,animals displaying neurotoxicity/tested,"Neurotoxicity, rats ip; 8.00 h (Table X-A)",0/8
same,animals displaying neurotoxicity/tested,"Neurotoxicity, rats ip; 24.00 h (Table X-A)",2/8
